The species named for one assay is Ovis aries. The experiment in a line: Inhibition of sheep brain tubulin polymerization at 100 uM by fluorescence assay.
The nature of assay [1]: Inhibition of sheep brain tubulin polymerization by fluorescence assay. Also on record: species or system Ovis aries.
Assay [2] can be described thus: Growth inhibition of human MOLT4 cells at 10^-5 M after 48 hrs by SRB assay. It is filed as functional. As to conditions: MOLT-4, 48 h, read-out: GI.
The test system of the next assay is HL-60(TB). The experiment in a line: Growth inhibition of human HL-60(TB) cells at 10^-5 M after 48 hrs by SRB assay. It is filed as functional. To be noted: HL-60, 48 h, read-out: GI.
A short description of assay [3]: Growth inhibition of human HOP92 cells at 10^-5 M after 48 hrs by SRB assay. It is filed as functional. To be noted: HOP-92, 48 h, read-out: GI.
Assay [4] is described as follows: Growth inhibition of human EKVX cells at 10^-5 M after 48 hrs by SRB assay. The format is functional. To be noted: read-out: GI.
The subject of another assay is NCI-H522. Briefly: Growth inhibition of human NCI-H522 cells at 10^-5 M after 48 hrs by SRB assay. To be noted: NCI-H522, 48 h, read-out: GI. The format is functional.
Assay [5] in a line: Growth inhibition of human HCT116 cells at 10^-5 M after 48 hrs by SRB assay. The format is functional. As to conditions: HCT-116, 48 h, read-out: GI.
A short description of assay [6]: Growth inhibition of human HCT15 cells at 10^-5 M after 48 hrs by SRB assay. The format is functional. To be noted: HCT-15, 48 h, read-out: GI.
The next assay has as its system MDA-MB-435. Briefly: Growth inhibition of human MDA-MB-435 cells at 10^-5 M after 48 hrs by SRB assay. As to conditions: MDA-MB-435, 48 h, read-out: GI. The format is functional.
Another assay deals with Malme-3M. The experiment in a line: Growth inhibition of human MALME-3M cells at 10^-5 M after 48 hrs by SRB assay. The format is functional. As to conditions: read-out: GI.
For a further assay, the system named is A498. Briefly: Growth inhibition of human A498 cells at 10^-5 M after 48 hrs by SRB assay. It is filed as functional. As to conditions: A498, 48 h, read-out: GI.
For another assay, the system named is CAKI-1. Briefly: Growth inhibition of human Caki1 cells at 10^-5 M after 48 hrs by SRB assay. The format is functional. As to conditions: CAKI-1, 48 h, read-out: GI.
Assay [7] is described as follows: Growth inhibition of human PC3 cells at 10^-5 M after 48 hrs by SRB assay. It is filed as functional. To be noted: PC-3, 48 h, read-out: GI.
Assay [8] can be described thus: Growth inhibition of human SF295 cells at 10^-5 M after 48 hrs by SRB assay. The format is functional. To be noted: SF-295, 48 h, read-out: GI.
For a further assay, the system named is SNB-75. Briefly: Growth inhibition of human SNB75 cells at 10^-5 M after 48 hrs by SRB assay. As to conditions: SNB-75, 48 h, read-out: GI. It is filed as functional.
In the next assay the test system is MCF7. The experiment in a line: Growth inhibition of human MCF7 cells at 10^-5 M after 48 hrs by SRB assay. The format is functional. As to conditions: MCF7, 48 h, read-out: GI.
The subject of another assay is T47D. Briefly: Growth inhibition of human T47D cells at 10^-5 M after 48 hrs by SRB assay. It is filed as functional. As to conditions: Homo sapiens, T47D, 48 h; read-out: GI.

In the case of `CCOC(=O)c1cc(C(=O)c2cc(OC)c(OC)c(OC)c2Br)n2ccc(OC)cc12`, the inhibition in the assay listed under Ovis aries is 54%. Further, the IC50 in assay [1] was found to be 104 µM. The inhibition of growth at 10 µM was 60% in assay [2]; 57% with HL-60(TB); 39% in assay [3]; 52% in assay [4]; 35% in the assay with NCI-H522; 31% in assay [5]. Further, the inhibition of growth at 10 µM in [6] turned out to be 39%; in the assay on MDA-MB-435 it was 10%; in the assay with Malme-3M it was 0%; in the assay with A498 it was 23%; in the assay with CAKI-1, 51%; in assay [7] it was 60%. Further, the inhibition of growth at 10 µM in [8] amounted to 38%; in the assay with SNB-75 it was 0%; with MCF7 it was 7%; in the assay on T47D, 36%.

As to `COc1cc([C@@H]2c3cc4c(cc3C[C@H]3COC(=O)[C@@H]32)OCO4)cc(OC)c1OC` [DESOXYPODOPHYLLOTOXIN], the inhibition in the assay listed under Ovis aries was found to be 100%. Further, half-maximal inhibition in assay [1] (IC50) was put at 1.76 µM.

Compound `COC(=O)c1c(C(=O)OC)c2cc(OC)ccn2c1C(=O)c1ccc(OC)cc1` displayed an inhibition in the assay filed under Ovis aries of 34%. Besides, the inhibition of growth at 10 µM in assay [2] turned out to be 0%; with HL-60(TB), 6%; in [3], 0%; in [4], 13%; in assay [5] it was 0%; in [6] it was 0%. For the same compound, the inhibition of growth at 10 µM was 2% in the assay with MDA-MB-435; 0% in the assay on Malme-3M; 7% with A498; 18% in the assay with CAKI-1; 19% in assay [7]; 10% in [8]. Besides, the inhibition of growth at 10 µM amounted to 0% with SNB-75, 0% with MCF7 and 2% with T47D.

Turning to `COC(=O)c1c(C(=O)OC)c2cc(N(C)C)ccn2c1C(=O)c1cc(OC)c(OC)c(OC)c1`, in the assay filed under Ovis aries, the inhibition turned out to be 15%. Further, the inhibition of growth at 10 µM in assay [2] amounted to 0%; in the assay on HL-60(TB), 26%; in [3], 11%; in assay [4] it was 0%; with NCI-H522, 3%; in [5], 0%. In addition, the inhibition of growth at 10 µM in [6] is 7%; with MDA-MB-435, 4%; in the assay with Malme-3M, 0%; in the assay on A498, 18%; with CAKI-1 it was 19%; in assay [7], 2%. The inhibition of growth at 10 µM in assay [8] came to 11%; in the assay with SNB-75, 9%; with MCF7 it was 0%; in the assay with T47D it was 5%.

With `CCOC(=O)c1cc(C(=O)c2cc(OC)c(OC)c(OC)c2)n2cc(C)ccc12`, in the assay listed under Ovis aries, the inhibition came to 73%. In assay [1], this compound showed a concentration for half-maximal inhibition (IC50) of 33.5 µM.

On to `COC(=O)c1c(C(=O)OC)c2cc(N(C)C)ccn2c1C(=O)c1ccc(OC)c(OC)c1`, for which the inhibition in the assay listed under Ovis aries is 9%. The inhibition of growth at 10 µM in assay [2] came to 0%; with HL-60(TB), 12%; in [3], 18%; in [4], 0%; with NCI-H522, 3%; in assay [5] it was 0%. Moreover, the inhibition of growth at 10 µM was 6% in assay [6]; 0% with MDA-MB-435; 0% in the assay on Malme-3M; 27% in the assay with A498; 10% in the assay with CAKI-1; 11% in [7]. Further, the inhibition of growth at 10 µM in assay [8] stood at 1%; in the assay with SNB-75 it was 1%; with MCF7, 0%; with T47D, 0%.

Take `CCOC(=O)c1c(C(=O)OCC)c2cc(OC)ccn2c1C(=O)c1cc(OC)c(OC)c(OC)c1`: the inhibition in the assay filed under Ovis aries stood at 57%. For the same compound, in assay [1], the IC50 turned out to be 90.4 µM.

For the compound `CCOC(=O)c1cc(C(=O)c2cc(OC)c(OC)c(OC)c2)n2ccc(OC)cc12`, the inhibition in the assay listed under Ovis aries came out at 9%. In addition, the inhibition of growth at 10 µM in assay [2] came to 0%; in the assay on HL-60(TB), 17%; in assay [3] it was 8%; in assay [4], 4%; with NCI-H522, 44%; in [5], 18%. Further, the inhibition of growth at 10 µM amounted to 21% in [6]; 89% with MDA-MB-435; 13% with Malme-3M; 52% in the assay on A498; 32% in the assay with CAKI-1; 31% in assay [7]. For the same compound, the inhibition of growth at 10 µM in assay [8] came out at 32%; in the assay with SNB-75, 12%; in the assay with MCF7, 37%; with T47D, 5%.

For `COC(=O)c1c(C(=O)OC)c2cc(C)ccn2c1C(=O)c1cc(OC)c(OC)c(OC)c1`, the inhibition in the assay filed under Ovis aries was 2%. Also, the inhibition of growth at 10 µM was found to be 4% in [2]; 7% in the assay on HL-60(TB); 5% in assay [3]; 0% in assay [4]; 5% in the assay with NCI-H522; 0% in assay [5]. Besides, the inhibition of growth at 10 µM in assay [6] was found to be 3%; in the assay with MDA-MB-435, 0%; in the assay on Malme-3M, 8%; with A498, 3%; in the assay on CAKI-1, 3%; in assay [7], 1%. Moreover, the inhibition of growth at 10 µM worked out at 0% in assay [8], 7% in the assay with SNB-75, 0% in the assay with MCF7 and 3% in the assay with T47D.

Turning to `CCOC(=O)c1c(C(=O)OCC)c2c(C)cc(C)cn2c1C(=O)c1cc(OC)c(OC)c(OC)c1`, the inhibition in the assay filed under Ovis aries came to 58%. Also, the IC50 in assay [1] was determined as 93.2 µM.

In the assay filed under Ovis aries, `COC(=O)c1c(C(=O)OC)c2c(C)cc(C)cn2c1C(=O)c1ccc(OC)cc1` gave an inhibition of 61%. The compound also showed an IC50 in assay [1] of 81.2 µM.

`CCOC(=O)c1cc(C(=O)c2cc(OC)c(OC)c(OC)c2)n2cccc(C)c12` displayed an inhibition in the assay listed under Ovis aries of 55%. The compound further gave an IC50 in assay [1] of 98.2 µM.

Regarding `CCOC(=O)c1cc(C(=O)c2ccc(OC)cc2)n2cc(C)cc(C)c12`, the inhibition in the assay listed under Ovis aries is 32%. For the same compound, the inhibition of growth at 10 µM in the assay with HL-60(TB) worked out at 83%; in assay [3] it was 11%; in assay [4], 29%; in the assay with NCI-H522 it was 43%; in assay [5], 23%; in assay [6], 14%. For the same compound, the inhibition of growth at 10 µM in the assay with MDA-MB-435 turned out to be 11%; with Malme-3M it was 28%; with A498 it was 30%; in the assay on CAKI-1 it was 24%; in [7], 20%; in assay [8], 35%. The inhibition of growth at 10 µM with SNB-75 came out at 46%; with MCF7, 17%; in the assay with T47D, 13%.

Take `CCOC(=O)c1c(C(=O)OCC)c2cccc(C)n2c1C(=O)c1cc(OC)c(OC)c(OC)c1`: in the assay filed under Ovis aries, the inhibition is 58%. This compound showed an IC50 in [1] of 174 µM.

The values are drawn from ChEMBL document CHEMBL3352214, “Studies on indolizines. Evaluation of their biological properties as microtubule-interacting agents and as melanoma targeting compounds” (Eur J Med Chem, 2015).
